Results from US20130011538A1, “CRYSTAL OF MULTIVALENT METAL SALT OF MONATIN” (Ajinomoto Co., Inc., priority 2011, published 2013).
Where a name gives a salt, the structure may show the parent alone.

Legend:
[1] = Sweetness intensity evaluated by panelists in comparison with an aqueous solution of 5% sucrose; conditions: in comparison with the sweetness intensity of an aqueous solution of 5% sucrose; average of 7 panelists
Method: <Moisture content> 10.8 wt % (corresponding to the following equation: monatin:water=2:4) <Magnesium content> 3.6 wt % (corresponding to the following equation: monatin:magnesium=2:1)< <Characteristic X-ray diffraction peaks (2θ±0.2°, CuKα)> 8.9°, 11.2°, 15.0°, 17.8°, and 22.5° (FIG. 3)< <Crystalline form> The crystalline form in the deposited ML was a relatively small flake-like form (FIG. 4)< <Sweetness intensity> 2700 times higher (in comparison with the sweetness intensity of an aqueous solution of 5% sucrose, average of the sweetness intensities evaluated by 7 panelists)

[2] = Transmittance of monatin solution after storage (products containing glucose); type: physicochemical; conditions: storage at 44° C. and 78%
Method: (§1) <Name of device> UV-visible spectrophotometer, Cary 50, manufactured by Varian Medical Systems, Inc. <Measurement wavelength>430 nm
(§2) <Sample> 1 g of sweetener composition is totally dissolved in 50 mL of water.
1 g of each sweetener composition shown in the compositional table 1 was filled in a paper packaging material, and the packaging material was sealed with a heat seal. The composition was stored for a given period of time in a constant temperature and constant humidity device at 44° C. and 78%. Then, the total amount of the stored sample was dissolved in 50 mL of water, and the residual ratio of each monatin salt was calculated from the data obtained by HPLC analysis of the solution.

[3] = Transmittance of monatin solution after storage (products containing sucrose); type: physicochemical; conditions: storage at 44° C. and 78%
Method: as §1, §2
1 g of each sweetener composition shown in the compositional table 2 was filled in a paper packaging material, and the packaging material was sealed with a heat seal. The composition was stored for a given period of time in a constant temperature and constant humidity device at 44° C. and 78%. Then, the total amount of the stored sample was dissolved in 50 mL of water, and the residual ratio of each monatin salt was calculated from the data obtained by HPLC analysis of the solution.

| Compound | Sweetness intensity [1] | Change in color after storage [2] | Transmittance of the solution after storage (in words) [2] | Change in color after storage [3] | Transmittance of the solution after storage (in words) [3] |
| --- | --- | --- | --- | --- | --- |
| NC(CC(O)(Cc1c[nH]c2ccccc12)C(=O)[O-])C(=O)O.NC(CC(O)(Cc1c[nH]c2ccccc12)C(=O)[O-])C(=O)O.O.O.O.O.[Mg+2] [Example 2, ((2R,4R)-monatin)2 magnesium salt tetrahydrate] | 2700 times |  |  |  |  |
| NC(CC(O)(Cc1c[nH]c2ccccc12)C(=O)O)C(=O)O [potassium salt, (2R,4R)-monatin monopotassium salt] |  | colored yellow | decreased | colored yellow | decreased |
